Measurements from PubChem BioAssay AID2060607 (Molecular Pharmacology Branch, DTP, NCI, 2025).

System: 876862-298-R-J1-PDC complex spheroids, viability % test/control
Assay: Anticancer human tumor 876862-298-R-J1-PDC patient-derived endometrial carcinoma cell line growth inhibition [CLK]
Conditions: for IC50: curve of first compound; for viability, T/C: stronger effect = lower value
In short: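 Patient-derived tumor cells grown as complex spheroids with HUVEC endothelial cells and mesenchymal stem cells, treated with drug combinations. Concentrations descend in half-log steps from near clinical Cmax, or from 10 microM if Cmax unknown.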

[1] = second compound 0.0316 µM, first compound 0.00949 µM
[2] = second compound 0.0316 µM, first compound 0.03 µM
[3] = second compound 0.0316 µM, first compound 0.0949 µM
[4] = second compound 0.0316 µM, first compound 0.3 µM
[5] = second compound 0.1 µM, first compound 0.00949 µM
[6] = second compound 0.1 µM, first compound 0.03 µM
[7] = second compound 0.1 µM, first compound 0.0949 µM
[8] = second compound 0.1 µM, first compound 0.3 µM
[9] = second compound 0.316 µM, first compound 0.00949 µM
[10] = second compound 0.316 µM, first compound 0.03 µM
[11] = second compound 0.316 µM, first compound 0.0949 µM
[12] = second compound 0.316 µM, first compound 0.3 µM
[13] = second compound 1 µM, first compound 0.00949 µM
[14] = second compound 1 µM, first compound 0.03 µM
[15] = second compound 1 µM, first compound 0.0949 µM
[16] = second compound 1 µM, first compound 0.3 µM
[17] = second compound 3.16 µM, first compound 0.00949 µM
[18] = second compound 3.16 µM, first compound 0.03 µM
[19] = second compound 3.16 µM, first compound 0.0949 µM
[20] = second compound 3.16 µM, first compound 0.3 µM
[21] = second compound 10 µM, first compound 0.00949 µM
[22] = second compound 10 µM, first compound 0.03 µM
[23] = second compound 10 µM, first compound 0.0949 µM
[24] = second compound 10 µM, first compound 0.3 µM
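Further: spheroids exposed to drugs for 7 days before readout.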
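Wherever viability, T/C is given: 100% = DMSO vehicle control wells.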

SMILES: C=CC(=O)Nc1cc(Nc2nccc(-c3cn(C)c4ccccc34)n2)c(OC)cc1N(C)CCN(C)C + CNC(=O)c1ccc(Nc2nc(OC3CCCC3)c3c(-c4ccc5nc(C)oc5c4)c[nH]c3n2)c(OC)c1
- IC50 (second compound 0.0316 µM): 170 nM
- IC50 (second compound 0.1 µM): < 0.949 nM
- IC50 (second compound 0.316 µM): < 0.949 nM
- IC50 (second compound 1 µM): < 0.949 nM
- IC50 (second compound 3.16 µM): < 0.949 nM
- IC50 (second compound 10 µM): < 0.949 nM
- viability, T/C (second compound 0.0316 µM, first compound 0.000949 µM): 74.5%
- viability, T/C (second compound 0.0316 µM, first compound 0.003 µM): 79.6%
- viability, T/C [1]: 69.1%
- viability, T/C [2]: 64%
- viability, T/C [3]: 53.5%
- viability, T/C [4]: 46.6%
- viability, T/C (second compound 0.1 µM, first compound 0.000949 µM): 49.2%
- viability, T/C (second compound 0.1 µM, first compound 0.003 µM): 46%
- viability, T/C [5]: 44.2%
- viability, T/C [6]: 44.1%
- viability, T/C [7]: 41.7%
- viability, T/C [8]: 31.3%
- viability, T/C (second compound 0.316 µM, first compound 0.000949 µM): 46.4%
- viability, T/C (second compound 0.316 µM, first compound 0.003 µM): 41.3%
- viability, T/C [9]: 42.3%
- viability, T/C [10]: 41.1%
- viability, T/C [11]: 34%
- viability, T/C [12]: 27.8%
- viability, T/C (second compound 1 µM, first compound 0.000949 µM): 36.5%
- viability, T/C (second compound 1 µM, first compound 0.003 µM): 30.8%
- viability, T/C [13]: 32.7%
- viability, T/C [14]: 26.9%
- viability, T/C [15]: 30.2%
- viability, T/C [16]: 27.4%
- viability, T/C (second compound 3.16 µM, first compound 0.000949 µM): 24.1%
- viability, T/C (second compound 3.16 µM, first compound 0.003 µM): 27.6%
- viability, T/C [17]: 19.2%
- viability, T/C [18]: 20.9%
- viability, T/C [19]: 20%
- viability, T/C [20]: 19%
- viability, T/C (second compound 10 µM, first compound 0.000949 µM): 23.1%
- viability, T/C (second compound 10 µM, first compound 0.003 µM): 23.4%
- viability, T/C [21]: 21.7%
- viability, T/C [22]: 19.7%
- viability, T/C [23]: 17.9%
- viability, T/C [24]: 17.4%

SMILES: NC(=O)C(=Cn1cnc(-c2cc(C(F)(F)F)cc(C(F)(F)F)c2)n1)c1cncnc1 + CNC(=O)c1ccc(Nc2nc(OC3CCCC3)c3c(-c4ccc5nc(C)oc5c4)c[nH]c3n2)c(OC)c1
- IC50 (second compound 0.0316 µM): 19.4 nM
- IC50 (second compound 0.1 µM): < 9.49 nM
- IC50 (second compound 0.316 µM): < 9.49 nM
- IC50 (second compound 1 µM): < 9.49 nM
- IC50 (second compound 3.16 µM): < 9.49 nM
- IC50 (second compound 10 µM): < 9.49 nM
- viability, T/C [1]: 52.2%
- viability, T/C [2]: 49.7%
- viability, T/C [3]: 35.9%
- viability, T/C [4]: 25%
- viability, T/C (second compound 0.0316 µM, first compound 0.949 µM): 9.87%
- viability, T/C (second compound 0.0316 µM, first compound 3 µM): 8.36%
- viability, T/C [5]: 37.7%
- viability, T/C [6]: 34.3%
- viability, T/C [7]: 27.8%
- viability, T/C [8]: 19.4%
- viability, T/C (second compound 0.1 µM, first compound 0.949 µM): 8.19%
- viability, T/C (second compound 0.1 µM, first compound 3 µM): 5.57%
- viability, T/C [9]: 35.7%
- viability, T/C [10]: 24.1%
- viability, T/C [11]: 21.8%
- viability, T/C [12]: 14.3%
- viability, T/C (second compound 0.316 µM, first compound 0.949 µM): 4.08%
- viability, T/C (second compound 0.316 µM, first compound 3 µM): 1.39%
- viability, T/C [13]: 24.4%
- viability, T/C [14]: 21.2%
- viability, T/C [15]: 15.8%
- viability, T/C [16]: 6.44%
- viability, T/C (second compound 1 µM, first compound 0.949 µM): 2.52%
- viability, T/C (second compound 1 µM, first compound 3 µM): 1.7%
- viability, T/C [17]: 19.2%
- viability, T/C [18]: 13.5%
- viability, T/C [19]: 6.99%
- viability, T/C [20]: 2.31%
- viability, T/C (second compound 3.16 µM, first compound 0.949 µM): 2.53%
- viability, T/C (second compound 3.16 µM, first compound 3 µM): 1.98%
- viability, T/C [21]: 17.8%
- viability, T/C [22]: 13.8%
- viability, T/C [23]: 5.85%
- viability, T/C [24]: 1.75%
- viability, T/C (second compound 10 µM, first compound 0.949 µM): 1.16%
- viability, T/C (second compound 10 µM, first compound 3 µM): 0.58%

SMILES: Nc1ccccc1NC(=O)c1ccc(CNC(=O)OCc2cccnc2)cc1 + CNC(=O)c1ccc(Nc2nc(OC3CCCC3)c3c(-c4ccc5nc(C)oc5c4)c[nH]c3n2)c(OC)c1
- IC50 (second compound 0.0316 µM): 3670 nM
- IC50 (second compound 0.1 µM): 1070 nM
- IC50 (second compound 0.316 µM): < 31.6 nM
- IC50 (second compound 1 µM): < 31.6 nM
- IC50 (second compound 3.16 µM): < 31.6 nM
- IC50 (second compound 10 µM): < 31.6 nM
- viability, T/C (second compound 0.0316 µM, first compound 0.0316 µM): 71.4%
- viability, T/C (second compound 0.0316 µM, first compound 0.1 µM): 88.4%
- viability, T/C (second compound 0.0316 µM, first compound 0.316 µM): 82.8%
- viability, T/C (second compound 0.0316 µM, first compound 1 µM): 80.6%
- viability, T/C (second compound 0.0316 µM, first compound 3.16 µM): 53.1%
- viability, T/C (second compound 0.0316 µM, first compound 10 µM): 29.2%
- viability, T/C (second compound 0.1 µM, first compound 0.0316 µM): 46.3%
- viability, T/C (second compound 0.1 µM, first compound 0.1 µM): 45.3%
- viability, T/C (second compound 0.1 µM, first compound 0.316 µM): 62.3%
- viability, T/C (second compound 0.1 µM, first compound 1 µM): 50.2%
- viability, T/C (second compound 0.1 µM, first compound 3.16 µM): 39.4%
- viability, T/C (second compound 0.1 µM, first compound 10 µM): 24.9%
- viability, T/C (second compound 0.316 µM, first compound 0.0316 µM): 41.2%
- viability, T/C (second compound 0.316 µM, first compound 0.1 µM): 43.8%
- viability, T/C (second compound 0.316 µM, first compound 0.316 µM): 44.7%
- viability, T/C (second compound 0.316 µM, first compound 1 µM): 40.9%
- viability, T/C (second compound 0.316 µM, first compound 3.16 µM): 27.3%
- viability, T/C (second compound 0.316 µM, first compound 10 µM): 16.9%
- viability, T/C (second compound 1 µM, first compound 0.0316 µM): 33.4%
- viability, T/C (second compound 1 µM, first compound 0.1 µM): 31.7%
- viability, T/C (second compound 1 µM, first compound 0.316 µM): 32.5%
- viability, T/C (second compound 1 µM, first compound 1 µM): 27.1%
- viability, T/C (second compound 1 µM, first compound 3.16 µM): 15.7%
- viability, T/C (second compound 1 µM, first compound 10 µM): 9.26%
- viability, T/C (second compound 3.16 µM, first compound 0.0316 µM): 25%
- viability, T/C (second compound 3.16 µM, first compound 0.1 µM): 22.5%
- viability, T/C (second compound 3.16 µM, first compound 0.316 µM): 22.5%
- viability, T/C (second compound 3.16 µM, first compound 1 µM): 16.1%
- viability, T/C (second compound 3.16 µM, first compound 3.16 µM): 12.1%
- viability, T/C (second compound 3.16 µM, first compound 10 µM): 2.17%
- viability, T/C (second compound 10 µM, first compound 0.0316 µM): 21%
- viability, T/C (second compound 10 µM, first compound 0.1 µM): 22.2%
- viability, T/C (second compound 10 µM, first compound 0.316 µM): 16.6%
- viability, T/C (second compound 10 µM, first compound 1 µM): 15.7%
- viability, T/C (second compound 10 µM, first compound 3.16 µM): 10%
- viability, T/C (second compound 10 µM, first compound 10 µM): 0.74%
